Series [1] is described as follows: in vitro. The class given is in vitro ADME, human. Conditions: HLM 0.50 mg/mL, NADPH 1 mM, 1 μM compound, pH 7.4, 37° C., 60 min.
Series [2] can be described thus: in vitro. The series is classed as in vitro ADME, rat. Particulars: RLM (male Sprague-Dawley) 0.50 mg/mL, NADPH 1 mM, 1 μM compound, pH 7.4, 37° C., 60 min. The text has this: RLM Stability Pooled RLM from male Sprague-Dawley rats (Xenotech R1000) were used.
Series [3] deals with T1, 5-HT1B receptor (Homo sapiens, UniProt P28222).
T1 construct: expressed in transfected cells
Description: cAMP accumulation functional assay at 5-HT1B. The class given is cell-based. Particulars: agonist, cAMP accumulation, max dose; read-out: 5-HT1B % Act @ Max Dose. The procedure:
Functional Assay at 5-HT1B. Agonist activity at 5-HT1B was determined using a CAMP accumulation protocol at WuXi AppTec (Hong Kong) Limited according to their standard protocols. Briefly, stably transfected cells were plated in an OptiPlate-384 well plate, incubated at RT for 60 mins, and cAMP standard solution (800 nM, 10 μL) was added to the blank well. Then, 10 μL detection reagent was added to each well, the plate incubated for 60 mins at RT, and the plate read using En Vision.
On the technique in general: cAMP levels reflect the balance of adenylyl cyclase and phosphodiesterase activity.

Series [4] deals with T2, 5-HT1A receptor (Homo sapiens, UniProt P08908).
T2 construct: expressed in transfected cells; host or cells: CHO cells, stably transfected
T2 sequence (P08908 1-422): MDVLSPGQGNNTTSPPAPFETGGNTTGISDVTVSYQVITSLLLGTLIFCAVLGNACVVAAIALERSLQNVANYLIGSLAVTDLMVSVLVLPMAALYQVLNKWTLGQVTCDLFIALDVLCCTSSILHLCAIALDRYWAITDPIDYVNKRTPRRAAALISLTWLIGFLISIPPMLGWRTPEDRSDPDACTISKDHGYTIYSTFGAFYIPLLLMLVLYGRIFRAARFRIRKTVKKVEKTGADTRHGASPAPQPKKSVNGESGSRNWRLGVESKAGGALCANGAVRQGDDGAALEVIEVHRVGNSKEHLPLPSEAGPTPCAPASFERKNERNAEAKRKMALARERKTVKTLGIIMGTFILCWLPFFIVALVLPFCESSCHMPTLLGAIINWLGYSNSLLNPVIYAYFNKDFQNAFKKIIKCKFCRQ
Description: cell-based. Conditions: CHO, agonist, Ca2+ flux, CHO cells with Gα15, max dose; read-out: 5-HT1A % Act @ Max Dose. The procedure:
(§1) Functional Assays at 5-HT2A, 5-HT2B, and 5-HT1A. Agonist activity at 5-HT2A, 5-HT2B, 5HT2C and 5-HT1A receptors was determined using a FLIPR Ca^2+ flux assay at WuXi AppTec (Hong Kong) Limited according to their standard protocols. Briefly, stably transfected cells expressing the receptor of interest and Gα15 in the case of 5-HT1A (HEK293 for 5-HT2A and 5-HT2B; CHO cells for 5-HT1A) were grown and plated in a 384 well plate and incubated at 37° C. and 5% CO2 overnight. A solution of 250 mM probenecid in 1 mL FLIPR assay buffer was prepared fresh. This was combined with a fluorescent dye (Fluo-4 Direct™) to make a final assay concentration of 2.5 mM. […] The fluorescent dye was then added to the assay plate along with assay buffer to a final volume of 40 μL. The cell plate was incubated for 50 min at 37° C. and 5% CO2 and placed into the FLIPR Tetra along with the compound plate. 10 μL of references and compounds were then transferred from the compound plate into the cell plate and the fluorescent signal was read.
Background: A change in cytosolic calcium serves as a functional read-out for many receptors and channels.

For series [5], the target named is T3, 5-HT2A receptor (Homo sapiens, UniProt P28223). Description: cell-based. On the set-up: expressed in transfected cells; host or cells: HEK293, stably transfected. The class given is cell-based. Particulars: for Emax: HEK293, agonist, Ca2+ flux, HEK293, max dose, read-out: 5-HT2A % Act @ Max Dose. The procedure: as §1
The target in series [6] is T4, 5-HT2B receptor (Homo sapiens, UniProt P41595).
T4 construct: expressed in transfected cells; host or cells: HEK293, stably transfected
Description: cell-based. The series is classed as cell-based. Particulars: HEK293, agonist, Ca2+ flux, HEK293, max dose; read-out: 5-HT2B % Act @ Max Dose. The procedure: as §1

The nature of series [7]: in vitro. The series is classed as in vitro ADME, mouse. Conditions: MLM (male CD-1) 0.50 mg/mL, NADPH 1 mM, 1 μM compound, pH 7.4, 37° C., 60 min. The text has this:
MLM Stability Pooled MLM from male CD-1 mice (BIOIVT M00501) were used.

Series [8] concerns the target T3, 5-HT2A receptor. Description: cell-based. The series is classed as cell-based. Conditions: agonist, beta-arrestin recruitment; for EC50: PathHunter, read-out: 5-HT2A Arrestin EC50; for Emax: max dose, read-out: 5-HT2A Arrestin % Act @ Max Dose. The protocol: Arrestin Functional Assay at 5-HT2A. Recruitment of beta-arrestin was determined using a PathHunter assay at Eurofins DiscoverX (Fremont, CA) according to their standard protocols. PathHunter GPCR beta-arrestin assays take advantage of DiscoverX's proprietary Enzyme Fragment Complementation technology. The GPCR is fused in frame with a small enzyme donor fragment ProLink™ (PK) and co-expressed in cells stably expressing a fusion protein of beta-arrestin and the larger, N-terminal deletion mutant of beta-galactosidase. Activation of the GPCR (5-HT2A receptor in this case) stimulates binding of beta-arrestin to the PK-tagged GPCR and forces complementation of the two enzyme fragments, resulting in the formation of an active beta-galactosidase enzyme. This interaction leads to an increase in enzyme activity that can be measured using chemiluminescent PathHunter Detection Reagents. Briefly, PathHunter cells expressing 5-HT2A receptors were seeded in a volume of 20 μL into 384-well plates and incubated at 37° C. for the appropriate time prior to testing. […] Plates were then imaged on a microplate reader and the agonist activity was calculated using the following formula: % Activity=100%×(mean RLU of test sample-mean RLU of vehicle control)/(mean MAX control ligand-mean RLU of vehicle control), where RLU=relative light units.

Results on eleven compounds are retold here after patent publication US20260317319A1, “NOVEL ERGOLINES AND METHODS OF TREATING MOOD DISORDERS” (Gilgamesh Pharma Inc., priority 2023, published 2026).

For orientation: EC50 means the concentration that produces a half-maximal response.

Read-outs that look alike come from different tables or passages of the source.

T4 sequence (P41595 whole entry): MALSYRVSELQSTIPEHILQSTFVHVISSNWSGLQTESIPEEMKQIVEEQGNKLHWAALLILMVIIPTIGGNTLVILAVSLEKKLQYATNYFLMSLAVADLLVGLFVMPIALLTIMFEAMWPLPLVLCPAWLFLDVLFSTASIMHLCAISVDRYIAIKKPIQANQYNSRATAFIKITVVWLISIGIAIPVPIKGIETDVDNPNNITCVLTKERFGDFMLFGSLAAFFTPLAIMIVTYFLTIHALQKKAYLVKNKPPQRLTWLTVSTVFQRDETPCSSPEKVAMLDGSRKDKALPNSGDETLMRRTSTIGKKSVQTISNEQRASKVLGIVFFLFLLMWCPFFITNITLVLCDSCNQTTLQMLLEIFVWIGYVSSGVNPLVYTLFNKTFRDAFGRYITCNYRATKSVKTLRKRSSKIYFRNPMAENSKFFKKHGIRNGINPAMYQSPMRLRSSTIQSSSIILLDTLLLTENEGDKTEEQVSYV
T3 sequence (P28223 whole entry): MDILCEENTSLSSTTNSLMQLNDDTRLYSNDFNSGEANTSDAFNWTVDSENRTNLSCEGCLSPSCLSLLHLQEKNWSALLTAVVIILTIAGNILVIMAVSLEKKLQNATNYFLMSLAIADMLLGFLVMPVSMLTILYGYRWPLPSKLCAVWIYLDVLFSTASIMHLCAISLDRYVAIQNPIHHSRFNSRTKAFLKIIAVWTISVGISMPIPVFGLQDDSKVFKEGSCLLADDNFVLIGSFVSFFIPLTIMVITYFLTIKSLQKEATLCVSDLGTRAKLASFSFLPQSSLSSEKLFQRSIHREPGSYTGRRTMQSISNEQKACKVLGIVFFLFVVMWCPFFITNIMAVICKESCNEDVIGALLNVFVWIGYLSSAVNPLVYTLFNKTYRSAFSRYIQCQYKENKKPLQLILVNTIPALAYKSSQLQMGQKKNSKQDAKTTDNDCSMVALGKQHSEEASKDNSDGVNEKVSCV
T1 sequence (P28222 whole entry): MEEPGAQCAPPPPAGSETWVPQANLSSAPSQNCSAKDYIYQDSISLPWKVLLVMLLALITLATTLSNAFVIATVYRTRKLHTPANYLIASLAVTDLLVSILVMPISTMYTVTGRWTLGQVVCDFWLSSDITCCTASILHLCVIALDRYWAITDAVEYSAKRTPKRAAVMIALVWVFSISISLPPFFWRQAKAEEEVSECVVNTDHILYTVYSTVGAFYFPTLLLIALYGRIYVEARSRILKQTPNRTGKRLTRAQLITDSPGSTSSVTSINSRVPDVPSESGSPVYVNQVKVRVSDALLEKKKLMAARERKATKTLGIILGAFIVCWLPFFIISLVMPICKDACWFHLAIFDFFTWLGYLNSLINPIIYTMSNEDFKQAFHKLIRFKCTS

As for `CCN(CC)C(=O)[C@@H]1C=C2c3cccc4[nH]cc(c34)C[C@H]2N(CCc2ccc(OC)cc2)C1` [Compound 21, (6aR,9R)—N,N-diethyl-7-(4-methoxyphenethyl)-4,6,6a,7,8,9-hexahydroindolo[4,3-fg]quinoline-9-carboxamide], the “Intrinsic clearance (Clint)” value came out at 367.7 µL/min/mg in series [1], 323.2 µL/min/mg in series [2] and 717.4 µL/min/mg in series [7]. Moreover, the entries for the “half-life (t1/2)” value in series [1], in series [2] and in series [7] were 3.8 min, 4.3 min and 1.9 min, respectively. Also, the Emax in series [3] amounted to 79.1%; in series [4], 8.2%; in series [5], 51.2%; in series [6], 1.73%; in series [8], 93.7%. Further, the concentration for a half-maximal effect (EC50) in series [8] was found to be 5.85 nM.

For `CCCN1C[C@H](C(=O)N2[C@@H](C)C[C@@H]2C)C=C2c3cccc4[nH]c(Br)c(c34)C[C@H]21` [Compound 47, ((6aR,9R)-5-bromo-7-propyl-4,6,6a,7,8,9-hexahydroindolo[4,3-fg]quinolin-9-yl)((2S,4S)-2,4-dimethylazetidin-1-yl)methanone], the Emax in series [3] came out at 76.2%; in series [4], 62.1%; in series [5] it was 57%; in series [6] it was 87%.

Consider `CCN(CC)C(=O)[C@@H]1C=C2c3cccc4[nH]c(Br)c(c34)C[C@H]2N(CCCF)C1` [Compound 41, (6aR,9R)-5-bromo-N,N-diethyl-7-(3-fluoropropyl)-4,6,6a,7,8,9-hexahydroindolo[4,3-fg]quinoline-9-carboxamide], for which the Emax in series [3] amounted to 61.5%; in series [4], 39.8%; in series [5] it was 75.4%; in series [6], 84.5%.

As to `CCN(CC)C(=O)[C@@H]1C=C2c3cccc4[nH]cc(c34)C[C@H]2N(CCc2ccccn2)C1` [Compound 23, (6aR,9R)—N,N-diethyl-7-(2-(pyridin-2-yl)ethyl)-4,6,6a,7,8,9-hexahydroindolo[4,3-fg]quinoline-9-carboxamide], the “Intrinsic clearance (Clint)” value in series [1] was determined as 193.3 µL/min/mg; in series [2], 331.7 µL/min/mg; in series [7] it was 768.7 µL/min/mg. Also, the “half-life (t1/2)” value in series [1] is listed as 7.2 min; in series [2] it was 4.2 min; in series [7], 1.8 min. The Emax in series [3] came to 83.7%; in series [4], 46.2%; in series [5] it was 85.4%; in series [6] it was 12.5%; in series [8] it was 65.2%. In series [8], the EC50 worked out at 5.97 nM.

`CCN(CC)C(=O)[C@@H]1C=C2c3cccc4[nH]cc(c34)C[C@H]2N(CCF)C1` [Compound 39, (6aR,9R)—N,N-diethyl-7-(2-fluoroethyl)-4,6,6a,7,8,9-hexahydroindolo[4,3-fg]quinoline-9-carboxamide]: the Emax came out at 99% in series [3], 91.2% in series [4], 95.5% in series [5] and 85.5% in series [6].

As to `CN1C[C@H](C(=O)N(CCF)CCF)C=C2c3cccc4[nH]cc(c34)C[C@H]21` [Compound 38, (6aR,9R)—N,N-bis(2-fluoroethyl)-7-methyl-4,6,6a,7,8,9-hexahydroindolo[4,3-fg]quinoline-9-carboxamide], the Emax in series [3] amounted to 94.7%; in series [4], 90.5%; in series [5], 93.4%; in series [6], 28.1%.

As to `CCN(CC)C(=O)[C@@H]1C=C2c3cccc4[nH]cc(c34)C[C@H]2N(Cc2ccccc2O)C1` [Compound 16, (6aR,9R)—N,N-diethyl-7-(2-hydroxybenzyl)-4,6,6a,7,8,9-hexahydroindolo[4,3-fg]quinoline-9-carboxamide], the “Intrinsic clearance (Clint)” value in series [1] came out at 285.8 µL/min/mg; in series [2] it was 616.3 µL/min/mg; in series [7], 1053.2 µL/min/mg. Moreover, the “half-life (t1/2)” value in series [1] is given as 4.9 min; in series [2], 2.2 min; in series [7] it was 1.3 min. Also, the Emax in series [3] was determined as 90.1%; in series [4], 22.3%; in series [5], 62%; in series [6] it was 26.5%; in series [8], 47.6%. In addition, the EC50 in series [8] came to 3.96 nM.

In the case of `CC[C@@H](C)NC(=O)[C@@H]1C=C2c3cccc4[nH]cc(c34)C[C@H]2N(CCC(F)(F)F)C1` [Compound 40, (6aR,9R)—N—((R)-sec-butyl)-7-(3,3,3-trifluoropropyl)-4,6,6a,7,8,9-hexahydroindolo[4,3-fg]quinoline-9-carboxamide], the Emax in series [3] amounted to 62.1%; in series [4] it was 22.3%; in series [5], 45.1%; in series [6] it was 8.46%. Besides, in series [5] (functional agonist activity), the “selectivity for 5-HT2A over the other serotonin receptors tested” value was “highly selective for 5-HT2A”.

As for `CCCN1C[C@H](C(=O)N(CC)CC)C=C2c3cccc4[nH]c(Br)c(c34)C[C@H]21` [Compound 9, (6aR,9R)-5-bromo-N,N-diethyl-7-propyl-4,6,6a,7,8,9-hexahydroindolo[4,3-fg]quinoline-9-carboxamide], the Emax in series [3] is 81.5%; in series [4] it was 101%; in series [5], 75.8%; in series [6] it was 89.6%.

As for `C=CCN1C[C@H](C(=O)N2[C@@H](C)C[C@@H]2C)C=C2c3cccc4[nH]cc(c34)C[C@H]21` [Compound 27, ((6aR,9R)-7-allyl-4,6,6a,7,8,9-hexahydroindolo[4,3-fg]quinolin-9-yl)((2S,4S)-2,4-dimethylazetidin-1-yl)methanone], the Emax in series [3] was found to be 96.9%; in series [4], 90.8%; in series [5] it was 81.1%; in series [6] it was 96%.

On to `CCCN1C[C@H](C(=O)N[C@H](C)CC)C=C2c3cccc4[nH]c(Br)c(c34)C[C@H]21` [Compound 46, (6aR,9R)-5-bromo-N—((R)-sec-butyl)-7-propyl-4,6,6a,7,8,9-hexahydroindolo[4,3-fg]quinoline-9-carboxamide], for which the Emax in series [3] was found to be 78.8%; in series [4], 69.5%; in series [5] it was 69.5%; in series [6], 79%.
